Results on 14 compounds are retold here after patent US7074789B2, “Kinase inhibitors” (Amgen Inc., priority 1999, dated 2006).

SMILES strings stand for the structures. pIC50: −log10 of the molar value.

What all share (format): biochemical
One experiment has as its target T1, EGFR (Homo sapiens, UniProt P00533).
T1 construct: Kinases are expressed as either kinase domains or full length constructs; made in house
The experiment can be described thus: Kinase inhibition assay (33P transfer), EGFR. Particulars: Table 2, class symbols A-E; read-out: EGFR-1. The procedure, abridged:
(§1)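 Kinase domains or full-length enzymes, GST- or polyHis-tagged, were expressed in E. coli or baculovirus High Five cells and affinity-purified. Transfer of 33PO4 from ATP onto plate-bound poly(Glu,Tyr) 4:1 or poly(Arg,Ser) 3:1 was counted by liquid scintillation after a 0.5% phosphoric acid wash. IC50 = concentration halving incorporation.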

The target in a further experiment is T2, AKT (Homo sapiens, UniProt Q9Y243).
T2 construct: Kinases are expressed as either kinase domains or full length constructs; made in house
Briefly: Kinase inhibition assay (33P transfer), AKT. Particulars: Table 2, class symbols A-E; read-out: AKT3-1. The procedure, abridged: (§2)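 33P-ATP transfer to coated synthetic polymer substrates; acid wash (0.5% H3PO4), scintillant, liquid scintillation count. Enzymes: His- or GST-fusion kinases from E. coli or High Five insect cells.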

Another experiment deals with T3, Itk (Homo sapiens, UniProt Q08881).
T3 construct: Kinases are expressed as either kinase domains or full length constructs; made in house
T3 sequence (Q08881 1-620): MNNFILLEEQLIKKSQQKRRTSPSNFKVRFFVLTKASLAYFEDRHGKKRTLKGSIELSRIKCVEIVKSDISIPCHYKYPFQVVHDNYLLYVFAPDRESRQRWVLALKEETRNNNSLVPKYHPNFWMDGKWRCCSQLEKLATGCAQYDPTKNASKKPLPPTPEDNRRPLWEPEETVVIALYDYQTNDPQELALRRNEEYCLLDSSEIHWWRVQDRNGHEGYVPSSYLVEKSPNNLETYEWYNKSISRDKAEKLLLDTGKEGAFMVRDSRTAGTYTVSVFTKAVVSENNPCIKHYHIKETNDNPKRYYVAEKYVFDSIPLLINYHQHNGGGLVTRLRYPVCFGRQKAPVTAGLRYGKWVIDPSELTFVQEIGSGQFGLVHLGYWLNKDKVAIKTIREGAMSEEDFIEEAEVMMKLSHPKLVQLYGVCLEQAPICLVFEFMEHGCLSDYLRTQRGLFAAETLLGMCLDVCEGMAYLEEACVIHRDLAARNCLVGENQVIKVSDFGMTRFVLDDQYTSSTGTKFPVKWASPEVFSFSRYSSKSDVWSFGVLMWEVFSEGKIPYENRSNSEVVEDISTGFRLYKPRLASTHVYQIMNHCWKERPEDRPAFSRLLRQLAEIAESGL
The experiment can be described thus: Kinase inhibition assay (33P transfer), Itk. Conditions: Table 3, class symbols; read-out: Itk-1. The procedure, abridged:
as §1

For a further experiment, the target named is T4, IGFR-1 (Homo sapiens, UniProt P08069).
T4 construct: Kinases are expressed as either kinase domains or full length constructs; made in house
T4 sequence (P08069 31-1367): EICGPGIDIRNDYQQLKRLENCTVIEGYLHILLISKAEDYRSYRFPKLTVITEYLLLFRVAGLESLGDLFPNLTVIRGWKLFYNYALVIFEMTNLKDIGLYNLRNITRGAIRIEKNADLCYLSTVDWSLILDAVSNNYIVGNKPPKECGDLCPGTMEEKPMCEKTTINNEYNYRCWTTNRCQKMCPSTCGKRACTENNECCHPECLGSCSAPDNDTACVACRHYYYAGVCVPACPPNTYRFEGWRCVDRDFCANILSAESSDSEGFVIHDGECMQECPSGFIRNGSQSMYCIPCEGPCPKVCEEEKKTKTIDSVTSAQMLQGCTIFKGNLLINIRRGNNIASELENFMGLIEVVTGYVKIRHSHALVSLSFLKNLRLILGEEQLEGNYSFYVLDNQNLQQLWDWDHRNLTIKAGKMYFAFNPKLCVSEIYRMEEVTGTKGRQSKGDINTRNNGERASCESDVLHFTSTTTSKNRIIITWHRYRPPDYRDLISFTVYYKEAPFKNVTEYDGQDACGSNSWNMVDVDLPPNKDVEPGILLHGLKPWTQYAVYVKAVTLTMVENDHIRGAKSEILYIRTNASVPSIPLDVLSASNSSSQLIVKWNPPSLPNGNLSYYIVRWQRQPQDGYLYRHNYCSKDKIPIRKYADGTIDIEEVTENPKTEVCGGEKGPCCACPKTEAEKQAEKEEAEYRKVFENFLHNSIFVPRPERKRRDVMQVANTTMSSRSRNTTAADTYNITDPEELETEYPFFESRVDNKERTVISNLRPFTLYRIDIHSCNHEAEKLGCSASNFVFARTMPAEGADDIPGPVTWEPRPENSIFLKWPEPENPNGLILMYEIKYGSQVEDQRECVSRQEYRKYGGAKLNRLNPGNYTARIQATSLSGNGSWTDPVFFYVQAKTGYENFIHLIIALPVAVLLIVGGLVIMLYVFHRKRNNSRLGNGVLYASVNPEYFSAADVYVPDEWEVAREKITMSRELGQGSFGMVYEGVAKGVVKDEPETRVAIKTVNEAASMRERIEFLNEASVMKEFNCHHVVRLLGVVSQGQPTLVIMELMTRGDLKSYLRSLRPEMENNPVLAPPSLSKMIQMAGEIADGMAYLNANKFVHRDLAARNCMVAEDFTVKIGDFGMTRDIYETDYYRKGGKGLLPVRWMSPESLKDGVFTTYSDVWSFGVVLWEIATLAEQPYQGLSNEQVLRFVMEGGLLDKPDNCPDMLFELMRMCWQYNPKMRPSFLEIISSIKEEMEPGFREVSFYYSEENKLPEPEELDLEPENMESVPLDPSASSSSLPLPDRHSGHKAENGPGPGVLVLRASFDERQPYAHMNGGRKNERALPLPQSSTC
Briefly: Kinase inhibition assay (33P transfer), IGFR-1. Conditions: Table 2, class symbols A-E.

A further experiment concerns the target T5, PDGFRB (Homo sapiens, UniProt P09619).
T5 construct: Kinases are expressed as either kinase domains or full length constructs; made in house
Briefly: Kinase inhibition assay (33P transfer), PDGFRB. Particulars: read-out: PDGFRB-1.

Another experiment addresses T6, Kdr (Homo sapiens, UniProt P35968).
T6 construct: Kinases are expressed as either kinase domains or full length constructs; made in house
The experiment can be described thus: Kinase inhibition assay (33P transfer), Kdr. Conditions: Table 3, class symbols; read-out: KDR-1. The procedure, abridged: as §2

For a further experiment, the target named is T7, c-Met (Homo sapiens, UniProt P08581).
T7 construct: Kinases are expressed as either kinase domains or full length constructs; made in house
The experiment can be described thus: Kinase inhibition assay (33P transfer), c-Met. Particulars: Table 2, class symbols A-E; read-out: Met-1. The procedure, abridged: as §1

Another experiment deals with T8, ErbB2 (Homo sapiens, UniProt P04626).
T8 construct: Kinases are expressed as either kinase domains or full length constructs; made in house
T8 sequence (P04626 23-1255, species assumed): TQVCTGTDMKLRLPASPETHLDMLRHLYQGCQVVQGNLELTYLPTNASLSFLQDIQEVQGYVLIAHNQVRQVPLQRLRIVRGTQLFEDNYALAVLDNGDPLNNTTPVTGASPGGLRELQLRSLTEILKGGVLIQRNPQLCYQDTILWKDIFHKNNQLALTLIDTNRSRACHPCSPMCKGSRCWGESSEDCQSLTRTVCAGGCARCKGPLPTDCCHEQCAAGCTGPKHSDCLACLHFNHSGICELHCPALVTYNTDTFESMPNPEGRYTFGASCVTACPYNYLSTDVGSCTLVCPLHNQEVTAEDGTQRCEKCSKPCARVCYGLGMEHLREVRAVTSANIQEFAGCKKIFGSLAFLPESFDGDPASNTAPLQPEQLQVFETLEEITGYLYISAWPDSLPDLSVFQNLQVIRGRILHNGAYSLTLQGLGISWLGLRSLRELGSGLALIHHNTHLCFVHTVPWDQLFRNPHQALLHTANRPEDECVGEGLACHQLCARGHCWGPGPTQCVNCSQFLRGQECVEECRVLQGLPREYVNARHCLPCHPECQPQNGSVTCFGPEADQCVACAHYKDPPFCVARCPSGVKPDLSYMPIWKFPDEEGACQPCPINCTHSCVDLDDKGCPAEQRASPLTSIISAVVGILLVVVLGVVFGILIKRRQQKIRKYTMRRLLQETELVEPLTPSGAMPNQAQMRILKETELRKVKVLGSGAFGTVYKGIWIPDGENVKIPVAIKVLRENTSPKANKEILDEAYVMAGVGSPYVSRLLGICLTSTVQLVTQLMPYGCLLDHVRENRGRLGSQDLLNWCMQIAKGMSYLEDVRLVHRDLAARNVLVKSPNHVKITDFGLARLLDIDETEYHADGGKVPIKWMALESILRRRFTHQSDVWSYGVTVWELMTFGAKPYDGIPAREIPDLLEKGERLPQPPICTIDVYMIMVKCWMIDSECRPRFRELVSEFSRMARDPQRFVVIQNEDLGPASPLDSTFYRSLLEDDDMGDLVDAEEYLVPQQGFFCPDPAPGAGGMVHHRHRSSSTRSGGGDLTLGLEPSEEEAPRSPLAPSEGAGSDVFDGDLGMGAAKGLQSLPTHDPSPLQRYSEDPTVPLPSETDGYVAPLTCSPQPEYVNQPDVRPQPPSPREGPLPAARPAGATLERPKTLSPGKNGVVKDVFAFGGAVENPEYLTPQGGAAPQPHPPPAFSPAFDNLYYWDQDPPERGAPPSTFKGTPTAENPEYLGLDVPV
The experiment can be described thus: Kinase inhibition assay (33P transfer), ErbB2. Particulars: read-out: ErbB2-2. The procedure, abridged:
as §1

The next experiment deals with T9, Lck (Homo sapiens, UniProt P06239).
T9 construct: Kinases are expressed as either kinase domains or full length constructs; made in house
Briefly: Kinase inhibition assay (33P transfer), Lck. Conditions: Table 3, class symbols; read-out: Lck-1. The procedure, abridged:
as §2

The target of another experiment is T10, Zap-70 (Homo sapiens, UniProt P43403).
T10 construct: Kinases are expressed as either kinase domains or full length constructs; made in house
T10 sequence (P43403 1-619): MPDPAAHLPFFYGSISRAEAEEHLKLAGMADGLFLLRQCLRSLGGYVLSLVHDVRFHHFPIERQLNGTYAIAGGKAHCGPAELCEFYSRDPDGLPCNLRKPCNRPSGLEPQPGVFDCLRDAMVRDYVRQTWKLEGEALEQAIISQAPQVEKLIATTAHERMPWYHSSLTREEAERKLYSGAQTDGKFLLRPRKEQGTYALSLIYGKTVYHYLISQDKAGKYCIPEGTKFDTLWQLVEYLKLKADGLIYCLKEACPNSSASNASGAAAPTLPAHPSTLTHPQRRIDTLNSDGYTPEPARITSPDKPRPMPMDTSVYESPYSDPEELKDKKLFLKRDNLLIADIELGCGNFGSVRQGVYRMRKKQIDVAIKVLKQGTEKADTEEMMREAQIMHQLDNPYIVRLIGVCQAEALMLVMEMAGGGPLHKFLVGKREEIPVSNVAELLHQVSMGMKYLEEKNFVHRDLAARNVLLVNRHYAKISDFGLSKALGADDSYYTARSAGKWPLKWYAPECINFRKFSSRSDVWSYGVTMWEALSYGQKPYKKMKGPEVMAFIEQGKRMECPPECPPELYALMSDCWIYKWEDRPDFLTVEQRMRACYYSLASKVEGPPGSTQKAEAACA
The experiment can be described thus: Kinase inhibition assay (33P transfer), Zap-70. Particulars: Table 3, class symbols; read-out: Zap-1. The procedure, abridged:
as §2

T1 sequence (P00533 25-1210, species assumed): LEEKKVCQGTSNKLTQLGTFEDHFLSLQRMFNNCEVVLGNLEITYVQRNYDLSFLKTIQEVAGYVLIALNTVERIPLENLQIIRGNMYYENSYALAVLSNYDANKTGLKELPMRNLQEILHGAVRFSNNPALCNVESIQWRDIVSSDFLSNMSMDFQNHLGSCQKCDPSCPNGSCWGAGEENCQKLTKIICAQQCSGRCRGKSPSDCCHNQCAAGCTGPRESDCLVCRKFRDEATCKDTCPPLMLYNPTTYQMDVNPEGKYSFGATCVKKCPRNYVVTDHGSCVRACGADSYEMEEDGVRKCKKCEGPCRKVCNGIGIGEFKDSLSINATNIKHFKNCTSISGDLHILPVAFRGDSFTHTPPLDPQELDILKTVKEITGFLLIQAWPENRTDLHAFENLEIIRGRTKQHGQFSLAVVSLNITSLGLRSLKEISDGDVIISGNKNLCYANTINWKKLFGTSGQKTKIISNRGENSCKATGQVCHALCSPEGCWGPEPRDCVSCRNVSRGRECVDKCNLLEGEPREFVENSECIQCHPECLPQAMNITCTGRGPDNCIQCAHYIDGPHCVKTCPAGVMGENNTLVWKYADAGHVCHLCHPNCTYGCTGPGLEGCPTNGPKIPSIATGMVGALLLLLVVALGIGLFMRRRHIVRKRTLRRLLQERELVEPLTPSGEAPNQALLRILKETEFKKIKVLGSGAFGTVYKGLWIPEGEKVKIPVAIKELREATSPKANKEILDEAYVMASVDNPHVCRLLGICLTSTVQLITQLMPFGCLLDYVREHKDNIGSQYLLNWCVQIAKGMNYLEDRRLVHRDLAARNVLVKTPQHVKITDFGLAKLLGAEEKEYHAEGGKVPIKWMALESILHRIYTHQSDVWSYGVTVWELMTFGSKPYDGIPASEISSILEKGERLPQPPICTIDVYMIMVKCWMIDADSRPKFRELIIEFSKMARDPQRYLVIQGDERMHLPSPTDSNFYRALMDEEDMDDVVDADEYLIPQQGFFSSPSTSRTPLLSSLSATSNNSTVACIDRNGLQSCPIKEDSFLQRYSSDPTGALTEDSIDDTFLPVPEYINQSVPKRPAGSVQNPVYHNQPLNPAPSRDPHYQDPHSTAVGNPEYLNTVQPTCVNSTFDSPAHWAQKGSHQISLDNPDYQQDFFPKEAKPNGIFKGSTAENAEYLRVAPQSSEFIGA
T6 sequence (P35968 20-1356, species assumed): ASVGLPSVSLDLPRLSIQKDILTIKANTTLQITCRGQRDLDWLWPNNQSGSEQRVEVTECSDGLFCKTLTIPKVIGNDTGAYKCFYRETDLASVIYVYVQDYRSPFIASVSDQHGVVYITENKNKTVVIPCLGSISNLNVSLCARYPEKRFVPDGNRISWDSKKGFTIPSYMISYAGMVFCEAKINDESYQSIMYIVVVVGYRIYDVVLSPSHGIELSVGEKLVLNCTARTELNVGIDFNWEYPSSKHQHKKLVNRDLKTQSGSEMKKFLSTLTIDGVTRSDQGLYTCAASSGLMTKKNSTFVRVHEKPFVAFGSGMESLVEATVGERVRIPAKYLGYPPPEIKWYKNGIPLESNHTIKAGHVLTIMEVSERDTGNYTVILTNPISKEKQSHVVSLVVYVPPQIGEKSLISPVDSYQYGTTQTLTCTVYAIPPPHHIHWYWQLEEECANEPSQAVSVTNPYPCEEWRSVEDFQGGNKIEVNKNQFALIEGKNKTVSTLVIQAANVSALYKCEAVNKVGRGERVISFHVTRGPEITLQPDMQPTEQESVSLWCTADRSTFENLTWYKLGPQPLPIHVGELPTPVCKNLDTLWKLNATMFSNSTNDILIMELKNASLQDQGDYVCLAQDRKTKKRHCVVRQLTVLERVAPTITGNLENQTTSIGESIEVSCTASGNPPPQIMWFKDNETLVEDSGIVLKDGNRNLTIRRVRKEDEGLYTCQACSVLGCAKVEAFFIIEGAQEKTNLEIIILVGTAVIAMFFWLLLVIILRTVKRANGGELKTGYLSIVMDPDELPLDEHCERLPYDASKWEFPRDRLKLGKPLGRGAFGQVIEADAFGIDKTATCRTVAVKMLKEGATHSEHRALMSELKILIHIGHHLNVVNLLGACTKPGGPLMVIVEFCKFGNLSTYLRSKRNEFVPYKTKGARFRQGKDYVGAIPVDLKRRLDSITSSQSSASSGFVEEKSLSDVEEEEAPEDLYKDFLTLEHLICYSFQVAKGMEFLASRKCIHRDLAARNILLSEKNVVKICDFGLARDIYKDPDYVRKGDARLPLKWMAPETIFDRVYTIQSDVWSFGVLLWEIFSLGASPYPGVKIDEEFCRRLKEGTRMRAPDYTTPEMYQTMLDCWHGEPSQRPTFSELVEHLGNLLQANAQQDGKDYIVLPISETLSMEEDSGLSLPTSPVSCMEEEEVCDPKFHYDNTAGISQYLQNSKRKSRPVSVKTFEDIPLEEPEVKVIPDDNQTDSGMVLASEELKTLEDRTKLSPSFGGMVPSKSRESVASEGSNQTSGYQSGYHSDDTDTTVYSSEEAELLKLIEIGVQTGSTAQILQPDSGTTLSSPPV

Consider `CNC(=O)c1cccc(Nc2ncnc(Nc3cc(-c4ccco4)[nH]n3)n2)c1` [Compound 826], for which the pIC50 at EGFR is > 5.97; on AKT, < 4.92; on Itk, 5.20 to 5.97; against IGFR-1, 5.20 to 5.97; at PDGFRB, 5.20 to 5.97; at Kdr, > 5.97. In addition, the pIC50 at c-Met is 5.20 to 5.97; at ErbB2 it was 5.20 to 5.97; on Lck it was 5.20 to 5.97; on Zap-70, < 4.92.
For `FC(F)(F)Sc1cccc(Nc2ncnc(Nc3cc(-c4ccco4)[nH]n3)n2)c1` [Compound 827], the pIC50 at EGFR was > 6.02; on AKT it was 4.97 to 5.08; on Itk it was 5.24 to 6.02; against IGFR-1 it was 5.24 to 6.02; at PDGFRB, 5.24 to 6.02; on Kdr, 5.24 to 6.02. For the same compound, the pIC50 was 5.24 to 6.02 on c-Met, > 6.02 on ErbB2, 5.24 to 6.02 at Lck and 5.24 to 6.02 on Zap-70.
Consider `COc1cc(Nc2ncnc(-c3cccnc3Nc3cccc(C#N)c3)n2)cc(OC)c1OC` [Compound 828], for which the pIC50 at EGFR, at AKT, on Itk, against IGFR-1, at PDGFRB and at Kdr was < 5.01 in each case. For the same compound, the pIC50 at c-Met, at ErbB2, on Lck and on Zap-70 was < 5.01 in each case.
Regarding `COc1cccc(Nc2ncccc2-c2ncnc(Nc3cc(OC)c(OC)c(OC)c3)n2)c1` [Compound 829], the pIC50 at EGFR is 5.01 to 5.12; on AKT, < 5.01; on Itk, < 5.01; on IGFR-1, < 5.01; at PDGFRB, 5.28 to 6.06; at Kdr, > 6.06. Besides, the pIC50 was < 5.01 at c-Met, 5.28 to 6.06 on ErbB2, < 5.01 at Lck and < 5.01 on Zap-70.
Turning to `COc1cc(Nc2ncnc(-c3cccnc3Nc3ccc4c(c3)CCC4)n2)cc(OC)c1OC` [Compound 830], the pIC50 is < 5.02 on EGFR; < 5.02 on AKT; < 5.02 on Itk; < 5.02 at IGFR-1; < 5.02 on PDGFRB; 5.29 to 6.07 on Kdr. The pIC50 was 5.29 to 6.07 at c-Met, < 5.02 on ErbB2, < 5.02 at Lck and < 5.02 at Zap-70.
Consider `COc1cc(Nc2ncnc(-c3cccnc3Nc3cccc(C(C)=O)c3)n2)cc(OC)c1OC` [Compound 831], for which the pIC50 is < 5.02 on EGFR; < 5.02 at AKT; < 5.02 on Itk; < 5.02 on IGFR-1; > 6.07 at PDGFRB; < 5.02 on Kdr. Also, the pIC50 is 5.13 to 5.29 at c-Met, < 5.02 at ErbB2, < 5.02 on Lck and < 5.02 at Zap-70.
Turning to `COc1cc(Nc2ncnc(-c3cccnc3Nc3ccc(C(C)=O)cc3)n2)cc(OC)c1OC` [Compound 832], the pIC50 on EGFR was < 5.02; on AKT it was < 5.02; on Itk, < 5.02; on IGFR-1 it was < 5.02; on PDGFRB, < 5.02; at Kdr, 5.29 to 6.07. In addition, the pIC50 on c-Met was 5.29 to 6.07; on ErbB2, < 5.02; at Lck, < 5.02; at Zap-70 it was < 5.02.
For the compound `COc1cc(Nc2ncnc(-c3cccnc3Nc3ccccc3C)n2)cc(OC)c1OC` [Compound 833], the pIC50 on EGFR is < 4.99; on AKT, < 4.99; on Itk, < 4.99; at IGFR-1 it was < 4.99; on PDGFRB, > 6.05; on Kdr, > 6.05. Also, the pIC50 at c-Met is < 4.99; on ErbB2, < 4.99; at Lck, > 6.05; on Zap-70, < 4.99.
For `COc1cc(Nc2ncnc(-c3cccnc3Nc3ccc(Cl)cc3C)n2)cc(OC)c1OC` [Compound 834], the pIC50 on EGFR is < 5.03; at AKT it was < 5.03; on Itk it was < 5.03; on IGFR-1, < 5.03; at PDGFRB, > 6.08; at Kdr, 5.30 to 6.08. Moreover, the pIC50 at c-Met, at ErbB2, at Lck and on Zap-70 was < 5.03 in each case.
`COc1cc(Nc2ncnc(-c3cccnc3Nc3ccc(C(F)(F)F)cc3)n2)cc(OC)c1OC` [Compound 835]: the pIC50 at EGFR, on AKT, on Itk, against IGFR-1, on PDGFRB and at Kdr was < 5.04 throughout. Moreover, the pIC50 at c-Met, on ErbB2, at Lck and at Zap-70 was < 5.04 each time.
Take `COc1cc(Nc2ncnc(-c3cccnc3Nc3cccc(C(F)(F)F)c3)n2)cc(OC)c1OC` [Compound 836]: the pIC50 at EGFR, on AKT, at Itk, against IGFR-1, at PDGFRB and at Kdr was < 5.04 each time. Further, the pIC50 at c-Met, at ErbB2, on Lck and at Zap-70 was < 5.04 in each case.
For the compound `COc1cc(Nc2ncnc(-c3cccnc3Nc3cc(Cl)cc(Cl)c3)n2)cc(OC)c1OC` [Compound 837], the pIC50 at EGFR, on AKT, on Itk, at IGFR-1, on PDGFRB and at Kdr was < 5.05 in each case. Besides, the pIC50 on c-Met, on ErbB2, at Lck and on Zap-70 was < 5.05 in each case.
As to `COc1cc(Nc2ncnc(-c3cccnc3Nc3ccc(Oc4ccccc4)cc3)n2)cc(OC)c1OC` [Compound 839], the pIC50 at EGFR was < 5.06; on AKT, < 5.06; at Itk it was < 5.06; at IGFR-1, < 5.06; on PDGFRB, 5.17 to 5.34; at Kdr, < 5.06. Also, the pIC50 on c-Met is < 5.06; at ErbB2 it was 5.34 to 6.12; on Lck it was < 5.06; on Zap-70, < 5.06.
In the case of `COc1cc(Nc2ncnc(-c3cccnc3Nc3cccc(Oc4ccccc4)c3)n2)cc(OC)c1OC` [Compound 840], the pIC50 at EGFR was < 5.06; on AKT, < 5.06; on Itk it was < 5.06; at IGFR-1, < 5.06; at PDGFRB, 5.34 to 6.12; on Kdr it was 5.17 to 5.34. For the same compound, the pIC50 is < 5.06 on c-Met, 5.34 to 6.12 at ErbB2, < 5.06 at Lck and < 5.06 on Zap-70.
